Source: patent publication US20260103474A1, “NOVEL COMPOUNDS FOR THE DIAGNOSIS OF TDP-43 PROTEINOPATHIES” (AC IMMUNE SA, priority 2022, published 2026)

Key:
[1] = PK studies in healthy monkey (PET); assay type: in vivo; conditions: iv, Non-Human Primate; for Time of brain entry post injection / Washout: peak to half peak: whole brain
Experimental: Non-Human Primate (NHP) was injected intravenously (iv) with the [^18F]-labeled Compound 1 ([^18F]Compound 1) (4.2 mCi) or with the [^18F]-labeled Compound 17 ([^18F]-Compound 17) (5.3 mCi). Monkey PET scans were performed using a Siemens Focus 220. PET acquisition started immediately before the radioactive dose was injected. Images were generated as dynamic scans for 120 minutes with head focused.

[2] = target: human FTD Type A sarkosyl-insoluble brain extracts (Homo sapiens, UniProt Q13148); experiment: Kd determination by micro-radiobinding assay on FTD Type A extracts; assay type: binding; conditions: tritiated compound 1.29 to 300 nM
Experimental: Human brain extracts were prepared as described in Laferriere et al., 2019, Nature Neurosc. A sample of brain tissue (frontal or temporal cortex) was homogenized at 1:4 (w/v) ratio in the homogenization-solubilization (HS) buffer at 4° C. using tissue homogenizer (Precellys) with CKmix homogenization tubes. The following sequence was used for homogenization: 3 cycles of 30 seconds at 5000 rpm (with 15 seconds pause between each cycle). Homogenized samples were aliquoted and stored at −80° C. in 1.5 mL low protein binding tubes.
Brain homogenates were thawed on ice and resuspended in HS buffer to obtain a final concentration of 2% sarkosyl, 1 unit/μL Benzonase and 1 mM MgCl2. The samples were then incubated at 37° C. under constant shaking at 600 rpm on a thermomixer for 45 minutes (min). The supernatants were collected in a new tube (sarkosyl-soluble fraction, S1). The pellet was resuspended in 1000 μL of myelin floatation buffer and centrifuged at 20,000 g for 60 min at 4° C. The supernatant was carefully removed to remove all the floating lipids. This step was repeated if all the lipids could not be removed in a single step. The pellet was subsequently washed with Phosphate-Buffered Saline (PBS) and centrifuged for 30 min at 20,000 g at 4° C. The final pellet was resuspended in 200 μL PBS and stored at −80° C. (sarkosyl-insoluble fraction). The samples were analyzed by immunoblotting in denaturing conditions.
Human FTD sarkosyl-insoluble brain extracts were spotted onto microarray slides. The slides were incubated with [^3H]-Compounds 1, 7, 8, 9, 15, 16 and 17 in a range of concentrations, varying from 1.29 to 300 nM. After incubation, slides were washed and scanned by a real-time autoradiography system (BeaQuant, ai4R). Quantification of the signal was performed by using the Beamage image analysis software (ai4R). Non-specific signal was determined with an excess of non-radiolabeled compound 1, 7, 8, 9, 15, 16 and 17 (1 μM), respectively, and specific binding was calculated by subtracting the non-specific signal from the total signal.
The Kd (Dissociation constant) and R^2 (parameter ranging between 0.0 and 1.0 that quantifies the goodness of fit, and the best curve fit obtained with value of 1.0) were obtained by fitting the specific binding data with non-linear regression analysis, using a one-site specific binding model in GraphPad Prism8.

TDP-43 aggregates = TDP-43 aggregates (Homo sapiens, UniProt Q13148); experiment: Micro-autoradiography staining in brain sections from patients with FTD; assay type: binding; parameters: from tissue; host or cells: frozen post-mortem human brain sections (FTLD-TDP type A and type B; non-demented controls in the classical autoradiography); conditions: FTLD-TDP type A brain sections; 120 nM
Experimental: All tissues were collected from donors for or from whom a written informed consent for a brain autopsy and the use of the material and clinical information for research purposes had been obtained by the respective brain banks. All samples were anonymized and coded. Frozen brain tissue blocks with confirmed TDP-43 pathology upon autopsy were processed using a cryotome to generate sections of 10 μm in thickness and mounted on glass slides. Sections were kept at −80° C. until use.
Brain sections were immunostained using a commercially available antibody, specific for phosphorylated serine at amino acid 409/410 (anti-pTDP-43 pS409/410, Biolegend, 829901). Sections were fixed for 15 minutes at 4° C. with 4% formaldehyde (Sigma, 252549) and washed three times for height minutes with 1×PBS (Dulbecco's phosphate buffered saline, Sigma D1408) at room temperature. Next, sections were saturated and permeabilized in blocking buffer (PBS, 10% normal goat serum (NGS), 0.25% Triton X-100) for one hour at room temperature and incubated overnight at 4° C. with primary antibody against pTDP-43 (diluted at 1/500 in PBS, 5% NGS, 0.25% Triton X-100). The following day, sections were washed three times for height minutes with 1×PBS before incubation with a secondary, AlexaFluor633-labeled goat-anti-rat antibody (Invitrogen, A-21094, diluted at 1/500 in PBS) for 45 minutes at room temperature. Following incubation with […] antibodies the sections were washed three times in PBS before being processed further.
For micro-autoradiography, tritiated test compound ([^3H]-Compound 1, [^3H]-Compound 9 or [^3H]-Compound 17 respectively) was incubated on the sections at 120 nM in 50 mM Tris buffer pH 7.4 for 45 minutes at room temperature. Sections were then washed as follows: once in ice-cold 50 mM Tris-HCl pH 7.4 buffer for one minute, twice in ice-cold 70% ethanol for one minute, once in ice-cold 50 mM Tris-HCl pH 7.4 buffer for one minute and finally rinsed briefly in ice-cold distilled water. Sections were subsequently dried for one hour under a stream of air and then exposed to Ilford Nuclear Emulsion Type K5 (Agar Scientific, AGP9281) for ten days at 4° C. in a light-proof slide storage box. The sections were developed by immersing them successively in the following solutions: 1.) Ilford Phenisol Developer (1:5 dilution in H2O, Agar Scientific, AGP9106) for four minutes, 2.) Ilfostop solution (1:20 dilution in H2O, Agar Scientific, AGP9104) for two minutes, 3.) Ilford Hypam Fixer (1:5 dilution in H2O, Agar Scientific, AGP9183) for four minutes and finally rinsed with H2O for 10 minutes.
For image acquisition, sections were mounted using ProLong Gold Antifade reagent (Invitrogen P36930) and imaged on a Panoramic250 Slide Scanner (3DHistech) with a 40× objective capturing brightfield and fluorescent images separately or on a Panoramic Scan II (3DHistech) with a 20× objective. The Visiopharm image analysis software suite was used to align the fluorescent image with the brightfield image.

Chain of human FTD Type A sarkosyl-insoluble brain extracts (Q13148 263-414 limits assumed): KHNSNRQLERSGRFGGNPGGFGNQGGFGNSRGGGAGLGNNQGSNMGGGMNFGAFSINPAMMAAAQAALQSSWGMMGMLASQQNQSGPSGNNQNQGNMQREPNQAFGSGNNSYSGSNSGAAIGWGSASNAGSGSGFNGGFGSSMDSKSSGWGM
Chain of TDP-43 aggregates (Q13148 whole entry): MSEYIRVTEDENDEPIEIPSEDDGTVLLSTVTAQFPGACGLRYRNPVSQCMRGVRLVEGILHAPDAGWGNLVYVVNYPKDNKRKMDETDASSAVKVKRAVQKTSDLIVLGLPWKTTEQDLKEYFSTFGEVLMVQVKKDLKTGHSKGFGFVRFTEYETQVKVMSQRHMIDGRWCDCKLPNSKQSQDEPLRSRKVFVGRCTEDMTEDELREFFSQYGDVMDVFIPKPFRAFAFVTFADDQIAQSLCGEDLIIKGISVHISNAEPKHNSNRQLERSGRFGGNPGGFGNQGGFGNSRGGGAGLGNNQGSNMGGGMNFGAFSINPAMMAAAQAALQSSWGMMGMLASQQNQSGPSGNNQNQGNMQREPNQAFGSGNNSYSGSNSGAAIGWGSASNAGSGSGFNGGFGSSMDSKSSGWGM

Structure (SMILES)	SUVmax whole brain [1] [SUVmax]	Time of brain entry post injection [1] [min]	Washout: peak to half peak [1] [min]	Kd [2] [nM]	Micro-autoradiography silver grain signal versus pTDP-43 immunostaining (TDP-43 aggregates)
O=C1c2sc(-c3ccc(N4CCC(CO)CC4)nc3[18F])nc2CCN1c1cccnc1 [[^18F]-Compound 17, 2-(2-(fluoro-^18F)-6-(4-(hydroxymethyl)piperidin-1-yl)pyridin-3-yl)-5-(pyridin-3-yl)-6,7-dihydrothiazolo[5,4-c]pyridin-4(5H)-one]	1.1	4.5	< 13	–	–
O=C1c2sc(-c3ccc(N4CC[C@@H]([18F])C4)nc3F)nc2CCN1c1cccnc1 [[^18F]-Compound 1, fluorinated 2-[2-fluoro-6-[(3R)-3-fluoropyrrolidin-1-yl]-3-pyridyl]-5-(3-pyridyl)-6,7-dihydrothiazolo[5,4-c]pyridin-4-one]	2.7	5.5	< 17	–	–
[3H]c1cncc(N2CCc3nc(-c4cc([3H])c(N5CCCC5)nc4F)sc3C2=O)c1 [[^3H]-Compound 9, Tritiated 2-(2-fluoro-6-(pyrrolidin-1-yl)pyridin-3-yl)-5-(pyridin-3-yl)-6,7-dihydrothiazolo[5,4-c]pyridin-4(5H)-one]	–	–	–	26	colocalization with pTDP-43 aggregates
